# In publication PMC10528299, “Targeting FAK/PYK2 with SJP1602 for Anti-Tumor Activity in Triple-Negative Breast Cancer” (Current Issues in Molecular Biology, 2023):
# What was measured:
# [1] = tested on: HCC70; assay: 3D spheroid assay HCC70; format: cell-based; conditions: Homo sapiens, 96 h; HCC70, 4 days treatment; read-out: IC50 3D spheroid cell viability
# Description: (§1) Breast cancer cell lines were cultured in medium with or without 2% Matrigel (Corning, NY, USA) for 3 days in each 96-well ultra-low attachment round plate to form a single spheroid at a density of 3 × 10^3 cells/well. SJP1602 was dissolved in DMSO and treated for 4 days at concentrations ranging from 200 nM to 20 μM. Cell viability was quantified according to the manufacturer’s instructions using a CellTiter-Glo 3D cell viability assay (Promega, Madison, WI, USA). Luminescence was measured using the Tecan Spark 10M.
# [2] = tested on: 4T1; assay: 3D spheroid assay 4T1; format: cell-based; conditions: Mus musculus, 96 h; 4T1, 4 days treatment; read-out: IC50 3D spheroid cell viability
# Description: as §1
# [3] = biological target: T1, Abl(h) (Homo sapiens, UniProt P00519); assay: Eurofins kinase profiling; format: biochemical; conditions: read-out: residual kinase activity Abl(h)
# T1 construct: purchased Eurofins KinaseProfiler
# Description: (§2) The kinase profiling analysis was performed at Eurofins (Poitiers, France). A total of 110 kinase assays were carried out according to Eurofins’ standard protocols. For protein kinase assays, the kinase activity was measured using Eurofins’ KinaseProfiler radiometric assay. In this assay, a panel of kinases was incubated with the test compound SJP1602 at a concentration of 1 µM, and the kinase activity was determined using radiolabeled phosphate as a substrate. Lipid and atypical kinase assays were conducted using Eurofins’ homogeneous time-resolved fluorescence assay. The same panel of kinases was incubated with SJP1602 at a concentration of 1 µM, and the activity of lipid and atypical kinases was measured using this assay.
# [4] = biological target: T2, CDK1/cyclinB(h) (Homo sapiens, UniProt P06493); assay: Eurofins kinase profiling; format: biochemical; conditions: read-out: residual kinase activity CDK1/cyclinB(h)
# T2 construct: purchased Eurofins KinaseProfiler
# Description: as §2
# [5] = biological target: T3, FGFR2(h) (Homo sapiens, UniProt P21802); assay: Eurofins kinase profiling; format: biochemical; conditions: read-out: residual kinase activity FGFR2(h)
# T3 construct: purchased Eurofins KinaseProfiler
# Description: as §2
# [6] = biological target: T4, PKBα(h) (Homo sapiens, UniProt P31749); assay: Eurofins kinase profiling; format: biochemical; conditions: read-out: residual kinase activity PKBα(h)
# T4 construct: purchased Eurofins KinaseProfiler
# Description: as §2
# [7] = biological target: T5, PKCε(h) (Homo sapiens, UniProt Q02156); assay: Eurofins kinase profiling; format: biochemical; conditions: read-out: residual kinase activity PKCε(h)
# T5 construct: purchased Eurofins KinaseProfiler
# T5 sequence (Q02156 1-737): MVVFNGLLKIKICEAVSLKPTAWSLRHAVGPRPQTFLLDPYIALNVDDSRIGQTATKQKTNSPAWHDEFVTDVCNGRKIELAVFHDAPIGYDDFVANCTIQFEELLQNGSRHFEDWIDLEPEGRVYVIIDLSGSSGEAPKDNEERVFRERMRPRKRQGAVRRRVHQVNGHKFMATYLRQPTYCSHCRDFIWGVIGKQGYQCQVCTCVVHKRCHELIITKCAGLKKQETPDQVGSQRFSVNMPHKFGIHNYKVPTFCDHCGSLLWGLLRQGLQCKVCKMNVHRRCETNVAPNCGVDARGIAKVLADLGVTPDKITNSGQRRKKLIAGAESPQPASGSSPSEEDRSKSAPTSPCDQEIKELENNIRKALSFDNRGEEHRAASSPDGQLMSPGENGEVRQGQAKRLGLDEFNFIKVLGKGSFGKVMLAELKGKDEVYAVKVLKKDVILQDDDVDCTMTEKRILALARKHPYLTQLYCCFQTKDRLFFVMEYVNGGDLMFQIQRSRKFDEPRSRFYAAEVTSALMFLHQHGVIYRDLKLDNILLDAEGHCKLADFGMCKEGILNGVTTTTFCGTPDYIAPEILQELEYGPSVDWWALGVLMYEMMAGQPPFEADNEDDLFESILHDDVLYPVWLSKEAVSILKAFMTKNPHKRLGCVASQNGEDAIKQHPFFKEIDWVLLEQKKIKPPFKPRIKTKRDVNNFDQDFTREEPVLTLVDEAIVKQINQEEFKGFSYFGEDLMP
# Description: as §2
# [8] = biological target: T6, PKCθ(h) (Homo sapiens, UniProt Q04759); assay: Eurofins kinase profiling; format: biochemical; conditions: read-out: residual kinase activity PKCθ(h)
# T6 construct: purchased Eurofins KinaseProfiler
# Description: as §2
# [9] = biological target: T7, PKCι(h) (Homo sapiens, UniProt P41743); assay: Eurofins kinase profiling; format: biochemical; conditions: read-out: residual kinase activity PKCι(h)
# T7 construct: purchased Eurofins KinaseProfiler
# T7 sequence (P41743 1-596): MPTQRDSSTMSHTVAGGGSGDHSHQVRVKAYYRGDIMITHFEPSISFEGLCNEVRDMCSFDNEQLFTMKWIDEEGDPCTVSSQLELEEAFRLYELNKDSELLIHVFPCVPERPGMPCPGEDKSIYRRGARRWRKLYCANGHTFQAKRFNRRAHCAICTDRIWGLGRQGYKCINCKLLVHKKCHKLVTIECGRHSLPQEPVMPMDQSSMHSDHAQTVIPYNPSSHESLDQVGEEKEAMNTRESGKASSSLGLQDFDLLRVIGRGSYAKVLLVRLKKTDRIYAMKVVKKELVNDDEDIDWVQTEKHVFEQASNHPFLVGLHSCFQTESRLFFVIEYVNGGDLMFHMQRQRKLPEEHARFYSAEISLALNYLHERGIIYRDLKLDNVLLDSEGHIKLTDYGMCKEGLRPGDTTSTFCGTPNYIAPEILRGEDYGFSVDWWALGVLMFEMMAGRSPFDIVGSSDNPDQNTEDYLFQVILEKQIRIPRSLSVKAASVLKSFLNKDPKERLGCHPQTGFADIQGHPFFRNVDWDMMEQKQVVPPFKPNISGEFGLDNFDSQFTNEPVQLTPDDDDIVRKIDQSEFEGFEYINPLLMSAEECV
# Description: as §2
# [10] = biological target: T8, Snk(h) (Homo sapiens, UniProt Q9NYY3); assay: Eurofins kinase profiling; format: biochemical; conditions: read-out: residual kinase activity Snk(h)
# T8 construct: purchased Eurofins KinaseProfiler
# Description: as §2
# [11] = biological target: T9, TrkC(h) (Homo sapiens, UniProt Q16288); assay: Eurofins kinase profiling; format: biochemical; conditions: read-out: residual kinase activity TrkC(h)
# T9 construct: purchased Eurofins KinaseProfiler
# Description: as §2
# T4 sequence (P31749 whole entry): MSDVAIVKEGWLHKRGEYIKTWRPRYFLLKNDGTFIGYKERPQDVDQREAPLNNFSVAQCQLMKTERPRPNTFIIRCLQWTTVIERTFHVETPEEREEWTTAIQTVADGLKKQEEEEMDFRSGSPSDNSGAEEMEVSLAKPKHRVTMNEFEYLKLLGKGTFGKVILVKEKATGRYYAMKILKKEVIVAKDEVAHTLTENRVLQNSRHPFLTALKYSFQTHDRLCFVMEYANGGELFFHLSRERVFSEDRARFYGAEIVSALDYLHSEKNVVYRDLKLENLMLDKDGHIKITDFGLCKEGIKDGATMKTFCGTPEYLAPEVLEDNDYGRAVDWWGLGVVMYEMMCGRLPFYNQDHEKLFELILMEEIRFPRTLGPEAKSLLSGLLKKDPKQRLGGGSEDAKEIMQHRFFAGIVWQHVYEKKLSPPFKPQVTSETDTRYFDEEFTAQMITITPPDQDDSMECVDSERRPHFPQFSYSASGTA
# T3 sequence (P21802 22-821): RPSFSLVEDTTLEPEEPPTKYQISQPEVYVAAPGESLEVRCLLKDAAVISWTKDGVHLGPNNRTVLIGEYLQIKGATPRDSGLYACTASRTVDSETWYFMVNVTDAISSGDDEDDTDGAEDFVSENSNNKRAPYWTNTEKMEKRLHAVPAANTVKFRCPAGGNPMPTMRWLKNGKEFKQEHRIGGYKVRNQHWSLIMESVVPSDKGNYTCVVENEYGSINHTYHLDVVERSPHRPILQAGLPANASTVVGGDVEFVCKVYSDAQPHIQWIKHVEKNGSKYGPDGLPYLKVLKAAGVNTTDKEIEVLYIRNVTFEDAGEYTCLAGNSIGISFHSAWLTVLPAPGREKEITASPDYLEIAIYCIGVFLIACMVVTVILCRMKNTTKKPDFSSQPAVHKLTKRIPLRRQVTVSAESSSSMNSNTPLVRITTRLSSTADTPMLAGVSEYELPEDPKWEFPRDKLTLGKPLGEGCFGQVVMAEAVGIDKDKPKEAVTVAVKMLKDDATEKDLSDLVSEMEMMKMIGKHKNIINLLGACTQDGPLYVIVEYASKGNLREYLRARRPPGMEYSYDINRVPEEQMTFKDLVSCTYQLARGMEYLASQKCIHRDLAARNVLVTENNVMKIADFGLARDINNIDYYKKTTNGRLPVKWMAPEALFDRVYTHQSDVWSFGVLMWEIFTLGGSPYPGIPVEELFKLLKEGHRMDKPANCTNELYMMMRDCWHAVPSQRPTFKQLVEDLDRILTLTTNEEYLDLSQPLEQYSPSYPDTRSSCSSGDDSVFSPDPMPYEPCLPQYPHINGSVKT
# T9 sequence (Q16288 32-839): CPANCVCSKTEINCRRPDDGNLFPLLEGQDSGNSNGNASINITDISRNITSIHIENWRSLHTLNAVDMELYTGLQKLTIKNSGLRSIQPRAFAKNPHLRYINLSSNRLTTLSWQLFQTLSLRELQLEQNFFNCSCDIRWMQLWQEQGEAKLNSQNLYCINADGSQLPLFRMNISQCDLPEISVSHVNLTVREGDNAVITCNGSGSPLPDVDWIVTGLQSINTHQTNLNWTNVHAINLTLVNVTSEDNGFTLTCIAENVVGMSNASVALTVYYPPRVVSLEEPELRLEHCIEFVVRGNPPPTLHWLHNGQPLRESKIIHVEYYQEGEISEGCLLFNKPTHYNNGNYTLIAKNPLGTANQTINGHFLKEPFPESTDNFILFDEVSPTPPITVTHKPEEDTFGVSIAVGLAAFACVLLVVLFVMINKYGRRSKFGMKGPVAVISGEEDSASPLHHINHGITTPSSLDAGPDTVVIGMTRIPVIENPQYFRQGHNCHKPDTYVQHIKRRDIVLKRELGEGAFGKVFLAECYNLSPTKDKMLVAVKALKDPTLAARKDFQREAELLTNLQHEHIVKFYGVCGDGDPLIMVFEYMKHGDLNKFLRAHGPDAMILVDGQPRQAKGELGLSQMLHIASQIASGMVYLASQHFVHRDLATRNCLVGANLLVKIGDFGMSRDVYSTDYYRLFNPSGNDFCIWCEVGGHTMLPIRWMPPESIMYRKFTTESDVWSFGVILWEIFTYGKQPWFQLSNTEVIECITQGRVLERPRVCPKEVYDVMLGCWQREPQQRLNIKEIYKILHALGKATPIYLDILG
# T2 sequence (P06493 whole entry): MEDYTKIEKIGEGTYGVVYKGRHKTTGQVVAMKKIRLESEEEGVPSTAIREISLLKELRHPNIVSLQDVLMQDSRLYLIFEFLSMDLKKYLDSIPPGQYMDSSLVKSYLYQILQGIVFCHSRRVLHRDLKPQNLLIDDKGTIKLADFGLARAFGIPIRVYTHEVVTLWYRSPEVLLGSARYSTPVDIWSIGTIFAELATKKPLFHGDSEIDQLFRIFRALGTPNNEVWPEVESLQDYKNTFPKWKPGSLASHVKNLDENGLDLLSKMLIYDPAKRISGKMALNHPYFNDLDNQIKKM
# T2 sequence (P14635 whole entry partner): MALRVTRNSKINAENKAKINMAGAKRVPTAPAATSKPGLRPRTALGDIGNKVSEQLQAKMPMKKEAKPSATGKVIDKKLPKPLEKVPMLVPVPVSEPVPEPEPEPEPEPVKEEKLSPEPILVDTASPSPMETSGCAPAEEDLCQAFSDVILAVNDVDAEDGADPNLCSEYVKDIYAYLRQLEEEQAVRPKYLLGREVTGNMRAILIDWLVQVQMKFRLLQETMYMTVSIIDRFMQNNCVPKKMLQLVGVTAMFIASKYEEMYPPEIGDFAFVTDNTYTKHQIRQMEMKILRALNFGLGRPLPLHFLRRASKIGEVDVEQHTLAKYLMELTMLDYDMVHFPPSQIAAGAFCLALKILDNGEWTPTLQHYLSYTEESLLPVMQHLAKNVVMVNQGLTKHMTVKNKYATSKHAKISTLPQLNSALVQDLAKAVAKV
# T8 sequence (Q9NYY3 whole entry): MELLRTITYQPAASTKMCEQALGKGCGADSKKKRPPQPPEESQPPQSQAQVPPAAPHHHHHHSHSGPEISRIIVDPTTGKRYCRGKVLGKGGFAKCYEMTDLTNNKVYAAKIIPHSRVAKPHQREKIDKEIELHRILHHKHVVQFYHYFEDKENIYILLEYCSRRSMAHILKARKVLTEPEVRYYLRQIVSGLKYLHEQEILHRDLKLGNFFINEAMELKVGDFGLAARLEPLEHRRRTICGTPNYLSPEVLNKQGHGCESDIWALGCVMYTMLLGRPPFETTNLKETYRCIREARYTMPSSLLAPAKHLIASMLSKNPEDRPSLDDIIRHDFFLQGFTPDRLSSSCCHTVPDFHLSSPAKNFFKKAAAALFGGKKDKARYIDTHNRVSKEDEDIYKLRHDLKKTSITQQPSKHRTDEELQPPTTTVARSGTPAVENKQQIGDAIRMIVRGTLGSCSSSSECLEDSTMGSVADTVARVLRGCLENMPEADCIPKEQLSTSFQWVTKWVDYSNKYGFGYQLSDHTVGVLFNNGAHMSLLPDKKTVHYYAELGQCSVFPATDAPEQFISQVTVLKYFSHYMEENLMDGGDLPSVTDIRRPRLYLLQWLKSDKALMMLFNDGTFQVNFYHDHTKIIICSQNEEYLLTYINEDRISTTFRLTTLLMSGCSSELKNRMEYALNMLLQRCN
# T6 sequence (Q04759 whole entry): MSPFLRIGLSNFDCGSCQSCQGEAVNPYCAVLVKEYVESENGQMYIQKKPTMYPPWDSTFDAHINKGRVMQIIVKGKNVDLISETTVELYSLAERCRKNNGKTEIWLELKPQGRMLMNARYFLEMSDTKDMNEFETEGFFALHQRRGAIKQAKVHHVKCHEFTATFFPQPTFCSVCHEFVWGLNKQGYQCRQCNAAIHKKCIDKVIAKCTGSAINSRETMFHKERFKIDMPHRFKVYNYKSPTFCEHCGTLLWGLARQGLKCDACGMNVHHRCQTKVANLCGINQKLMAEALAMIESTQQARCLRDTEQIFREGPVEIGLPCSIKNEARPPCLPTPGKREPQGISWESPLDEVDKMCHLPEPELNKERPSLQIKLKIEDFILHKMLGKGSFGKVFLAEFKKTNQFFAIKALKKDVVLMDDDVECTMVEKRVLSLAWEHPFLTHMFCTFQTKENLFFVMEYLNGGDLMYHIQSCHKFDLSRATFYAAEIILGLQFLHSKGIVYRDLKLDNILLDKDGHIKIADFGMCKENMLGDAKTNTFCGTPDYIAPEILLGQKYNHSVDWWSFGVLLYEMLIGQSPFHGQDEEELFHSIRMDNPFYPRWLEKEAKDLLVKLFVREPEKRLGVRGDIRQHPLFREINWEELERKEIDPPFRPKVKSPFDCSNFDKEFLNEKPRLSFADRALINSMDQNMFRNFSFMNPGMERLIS
IC50 [2] [µM],remaining activity at 1 µM [3] [%],remaining activity at 1 µM [4] [%],remaining activity at 1 µM [5] [%],remaining activity at 1 µM [6] [%],remaining activity at 1 µM [7] [%],remaining activity at 1 µM [8] [%],remaining activity at 1 µM [9] [%],remaining activity at 1 µM [10] [%],remaining activity at 1 µM [11] [%],SMILES,IC50 [1] [µM]
1.19,57,14,46,101,98,63,100,64,13,"CNC(=O)c1ccc(Nc2ncc(C(F)(F)F)c(NCc3nccnc3N(C)S(C)(=O)=O)n2)cc1 [VS-6063, Defactinib]",8.18
> 10,99,97,98,105,112,96,106,113,104,CONC(=O)c1ccccc1Nc1cc(Nc2cc(C)nn2C(C)C)ncc1Cl [GSK2256098],> 10

SMILES,IC50 [2] [µM],remaining activity at 1 µM [3] [%],remaining activity at 1 µM [4] [%],remaining activity at 1 µM [5] [%],remaining activity at 1 µM [6] [%],remaining activity at 1 µM [7] [%],remaining activity at 1 µM [8] [%],remaining activity at 1 µM [9] [%],remaining activity at 1 µM [10] [%],remaining activity at 1 µM [11] [%],IC50 [1] [µM]
"CNC(=O)c1cccc(C)c1Nc1nc(Nc2ccc(N3CCN(C4C5CC6CC4CC(O)(C6)C5)CC3)cc2OC)ncc1C(F)(F)F (stereo not drawn) [SJP1602, 2-((2-((4-(4-((2s,5r)-5-hydroxyadamantan-2-yl)piperazin-1-yl)-2-methoxyphenyl)amino)-5-(trifluoromethyl)pyrimidin-4-yl)amino)-N,3-dimethylbenzamide]",0.184,76,88,90,100,103,93,93,105,120,1.45
